Where two headings read alike, the source gives them in different places.
Experiments:
[1] = ref database module of ACD/Labs software; cited from earlier work
[2] = ref database module of ACD/Labs software, cited from earlier work
[3] = Description: (§1) The retention behavior of the 42 basic compounds (Table 1) were investigated at different ratios of methanol (φ = 0.7–0.1, the interval was 0.1 or 0.05 based on the retention of the investigated solutes). The logk values were plotted versus φ for each solute at pH 7.0, pH 8.0, pH 9.0, and pH 10.0. […] The logD values of the model compounds and verification compounds calculated using Equation (S3) based on the logP and pH values are also listed in Table 1.
(§2) At each pH, the retention time (tR) of every analyte was determined for at least four different volume fractions (φ) of methanol. All the tR values of the solutes were obtained by averaging the results of at least three independent injections. The tR value was corrected using dual-point retention time correction (DP-RTC). For a detailed description of the process, refer to our previous work. For the different hydrophobicities of the studied compounds, benzene, toluene, and benzyl alcohol were used as anchor compounds in the DP-RTC method. The dead time t0 was determined using uracil. For each solute, the logarithm of k was plotted against φ, and logkw was obtained using the Equation (S1). The logD values of the model compounds were calculated using Equation (S3), and the logD–logkw models were established with Equation (S4). The statistical analysis for the regression model was accomplished using Origin 9.4. […]
(§3) Where, k is the capacity factor, φ is the volume fraction of organic modifier in the mobile phase, and S is the constant obtained by linear regression in the equations. […]
and logkw, which is usually called Collander equation [25 ]. lo g lo g wPm k n= + (S2)
Where, m and n are constants obtained by linear regression.
The Eqs. (S1) and (S2) are the basis for the determination of logP by revered- phase liquid chromatography (RPLC) method. For dissociative solutes, it has been confirmed by many studies that the logD calibrated from logP has a better linear correlation with logkw than logP.
For basic compounds, the logD value can be calibrated from Eq. (S3), and the Collander equation can be rewritten into Eq. (S4). log log( )D − −+ −+= + ++P […]
lo g ' lo g 'Dm k n= +w (S4)
Where, pKa1, pKa2 , … p Kan are the dissociation constants of basic compounds of corresponding acids in the mobile phase, pH is the pH value of mobile phase, m′ and n′ are fitting parameters. Han et al. pointed out that although mobile phase pH and pKa of solutes will change along with the varied organic modifier fraction, the difference between a couple of relevant pH and pKa is a constant. Therefore, the used pH and pKa in this paper were both the values obtained at 100% aqueous phase. […]

[4] = IS-RPLC retention on silica-based C18 column, logkw by linear solvent strength model; assay type: physicochemical
Experimental: as §1
The column temperature was set at 30 °C. Methanol and 20 mmol/L ammonium phosphate buffer (pH = 7.0, 8.0, 9.0, 10.0) was used as the mobile phase to perform isocratic elution. The injection volume was 10 µL and the detection wavelength for each eluted compound was set at its optimum absorption wavelength.
as §2, §3
The Eqs. (S1) and (S2) are the basis for the determination of logP by revered- phase liquid chromatography (RPLC) method. For dissociative solutes, it has been confirmed by many studies that the logD calibrated from logP has a better linear correlation with logkw than logP. […]

[5] = design: method as in UFZ-LSER database; settings: hydrogen bonding parameter B; ref UFZ-LSER database; cited from earlier work
[6] = physchem
Experimental: Multi-parameter QSRR models including logD, logkw, ne, A, and B were established using the multiple linear regression (MLR) method. In the process of linear fitting, ne, A, B, and their different combinations were introduced to optimize the models.
The logD values reported in the literature for these four compounds were calculated using Equation (S3) with corresponding pKa, logP, and pH values.
At each pH, the retention time (tR) of every analyte was determined for at least four different volume fractions (φ) of methanol. All the tR values of the solutes were obtained by averaging the results of at least three independent injections. The tR value was corrected using dual-point retention time correction (DP-RTC). For a detailed description of the process, refer to our previous work. For the different hydrophobicities of the studied compounds, benzene, toluene, and benzyl alcohol were used as anchor compounds in the DP-RTC method. The dead time t0 was determined using uracil. For each solute, the logarithm of k was plotted against φ, and logkw was obtained using the Equation (S1). The logD values of the model compounds were calculated using Equation (S3), and the logD–logkw models were established with Equation (S4). The statistical analysis for the regression model was accomplished using Origin 9.4.

[7] = pH 10.0, calculated with literature logP, pKa and pH, Equation (S3)
[8] = pH 7.0, methanol/20 mmol/L ammonium phosphate buffer, Welch Xtimate C18, 30 °C, 100% aqueous extrapolation
[9] = pH 8.0, methanol/20 mmol/L ammonium phosphate buffer, Welch Xtimate C18, 30 °C, 100% aqueous extrapolation
[10] = pH 9.0, methanol/20 mmol/L ammonium phosphate buffer, Welch Xtimate C18, 30 °C, 100% aqueous extrapolation
[11] = pH 10.0, methanol/20 mmol/L ammonium phosphate buffer, Welch Xtimate C18, 30 °C, 100% aqueous extrapolation
[12] = IS-RPLC retention (logkw), pH 7
[13] = IS-RPLC retention (logkw), pH 8
[14] = IS-RPLC retention (logkw), pH 9
[15] = IS-RPLC retention (logkw), pH 10

Row | SMILES | logP ([2]; n-octanol/water) | logDpH 7.0 ([3]; pH 7) | logDpH 8.0 ([3]; pH 8) | logDpH 9.0 ([3]; pH 9) | logDpH 10.0 ([3]; pH 10) | logkw-pH 7.0 ([4]; pH 7) | logkw-pH 8.0 ([4]; pH 8) | logkw-pH 9.0 ([4]; pH 9) | logkw-pH 10.0 ([4]; pH 10) | B [5] | logkw-pH 7.0 [4, 8] | logkw-pH 8.0 [4, 9] | logkw-pH 9.0 [4, 10] | logkw-pH 10.0 [4, 11] | chromatographic logD [6, 12] | chromatographic logD [6, 13] | chromatographic logD [6, 14] | chromatographic logD [6, 15] | other results
1 | Nc1ccc(N)cc1 [1,4-Benzenediamine] | −0.30 | −0.38 | −0.31 | −0.30 | −0.30 | −0.39 | −0.35 | −0.17 | −0.04 | 1.30 |  |  |  |  |  |  |  |  | pKa1 [1]: 6.31; pKa2 [1]: 2.97
2 | Cc1cc(C)nc(C)c1 [2,4,6-Trimethylpyridine] | 2.01 | 1.44 | 1.91 | 2.00 |  |  |  |  |  | 0.63 | 2.06 | 2.23 | 2.30 | 2.34 |  |  |  |  | logDpH 10.0 [3, 7]: 2.01
3 | CCc1ccccc1N [2-Ethylaniline] |  | 1.63 | 1.67 | 1.67 | 1.67 |  |  |  |  | 0.96 | 1.87 | 1.94 | 1.95 | 1.95 |  |  |  |  | chromatographic logD ([6]; pH 7): 1.79; chromatographic logD ([6]; pH 8): 1.77; chromatographic logD ([6]; pH 9): 1.75; chromatographic logD ([6]; pH 10): 1.71
4 | CCc1ccccn1 [2-Ethylpyridine] | 1.67 |  |  |  |  |  |  |  |  | 0.61 | 1.74 | 1.79 | 1.80 | 1.90 | 1.62 | 1.62 | 1.6 | 1.65 | logP ([2]; Table 4, verification compounds): 1.67; logDpH 7.0 ([3]; pH 7.0, calculated with literature logP, pKa and pH, Equation (S3)): 2.05; logDpH 8.0 ([3]; pH 8.0, calculated with literature logP, pKa and pH, Equation (S3)): 2.05; logDpH 9.0 ([3]; pH 9.0, calculated with literature logP, pKa and pH, Equation (S3)): 2.05; logDpH 10.0 [3, 7]: 2.05
5 | Cc1ccccc1N [2-Methylaniline] | 1.40 | 1.40 | 1.40 | 1.40 | 1.40 | 1.47 | 1.44 | 1.45 | 1.49 | 0.97 |  |  |  |  |  |  |  |  | 
6 | Nc1cccc(S(=O)(=O)c2cccc(N)c2)c1 [3,3’-Sulfonyldianiline] |  |  |  |  |  |  |  |  |  | 1.82 | 1.78 | 1.83 | 1.83 | 1.47 | 1.7 | 1.67 | 1.2 | 0.69 | 
7 | CCOc1ccc(N)cc1 [4-Ethoxyaniline] | 1.24 | 1.23 | 1.24 | 1.24 | 1.24 | 1.45 | 1.49 | 1.50 | 1.60 | 0.95 |  |  |  |  |  |  |  |  | 
8 | Nc1ccc(I)cc1 [4-Iodoaniline] |  |  |  |  |  |  |  |  |  | 1.53 | 2.22 | 2.28 | 2.29 | 2.28 | 2.14 | 2.1 | 2.13 | 2.08 | 
9 | Cc1c[nH]cn1 [4-Methylimidazole] |  |  |  |  |  | −0.08 | 0.19 | 0.32 | 0.39 | 0.64 |  |  |  |  | -0.54 | 0.06 | 0.08 | 0.07 | 
10 | NCc1ccccc1 [Benzylamine] |  |  |  |  |  |  |  |  |  |  | 0.36 | 0.49 | 1.05 | 1.42 |  |  |  |  | pKa1 [1]: 9.35
11 | O=C(O)c1cc(O)nc(O)c1 [Citrazinic acid] |  |  |  |  |  |  |  |  |  | 1.23 | 1.18 | 1.18 | 1.20 | 1.30 | 2.29 | 2.05 | 1.2 | 1.87 | 
12 | CCC(C(N)=O)N1CCCC1=O (stereo not drawn) [Etiracetam] |  |  |  |  |  |  |  |  |  | 1.03 | 0.80 | 0.66 | 0.82 | 0.88 | 0.7 | 0.54 | 0.17 | 0.04 | 
13 | CN(C)c1ccccc1 [N, N-Dimethylaniline] |  |  |  |  |  | 2.18 | 2.37 | 2.39 | 2.44 | 0.96 |  |  |  |  |  |  |  |  | pKa1 [1]: 5.07
